Results taken from patent US20250313563A1, “GLYCOGEN SYNTHASE KINASE 3 INHIBITORS AND USES THEREOF” (The Broad Institute, Inc., priority 2022, published 2025).
Where two headings read alike, the source gives them in different places.

What was measured:
[1] = target: GSK3α (GST-full length GSK3α) (Homo sapiens (Human), UniProt P49840); experiment: GSK3α TR-FRET kinase assay; assay type: biochemical
Procedure, shortened: (§1)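 IC50 came from the normalized 665/615 nm TR-FRET ratio plotted against log compound concentration. The Tb-labelled pSer641 antibody and streptavidin-d2 detected phosphorylation of biotinylated S645-primed glycogen synthase peptide (200 nM) by 1 nM full-length GST-kinase. ATP was 4 μM for α, 2 μM for β, or 1 mM.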

[2] = target: GSK3b (GST-full length GSK3b) (Homo sapiens (Human), UniProt P49841); experiment: GSK3b TR-FRET kinase assay; assay type: biochemical
Procedure, shortened: as §1

[3] = 1 nM GSK3α, 4 μM ATP, 30 minute preincubation, Table 16, read-out: GSK3-A TR-FRET BIOCHEMICAL (TR-FRET)
[4] = 1 nM GSK3b, 2 μM ATP, 30 minute preincubation, Table 16, read-out: GSK3-B TR-FRET BIOCHEMICAL (TR-FRET)
[5] = 1 nM GSK3α, 4 μM ATP, 30 minute preincubation, Table 16, read-out: GSK3-A TR-FRET BIOCHEMICAL (TR-FRET), IC50
[6] = 1 nM GSK3b, 2 μM ATP, 30 minute preincubation, Table 16, read-out: GSK3-B TR-FRET BIOCHEMICAL (TR-FRET), IC50
[7] = read-out: GSK3-A (TR-FRET 1 mM ATP), GMean, IC50, 1 mM ATP, geometric mean
[8] = read-out: GSK3-B (TR-FRET 1 mM ATP), GMean, IC50, 1 mM ATP, geometric mean
[9] = GSK3-A (TR-FRET 1 mM ATP), GMean, IC50, 1 mM ATP, geometric mean
[10] = GSK3-B (TR-FRET 1 mM ATP), GMean, IC50, 1 mM ATP, geometric mean
[11] = 1 nM GSK3α, 4 μM ATP, 30 minute preincubation, read-out: GSK3-A TR-FRET BIOCHEMICAL (TR-FRET), IC50
[12] = 1 nM GSK3b, 2 μM ATP, 30 minute preincubation, read-out: GSK3-B TR-FRET BIOCHEMICAL (TR-FRET), IC50

Sequence of GSK3b (GST-full length GSK3b) (P49841 whole entry): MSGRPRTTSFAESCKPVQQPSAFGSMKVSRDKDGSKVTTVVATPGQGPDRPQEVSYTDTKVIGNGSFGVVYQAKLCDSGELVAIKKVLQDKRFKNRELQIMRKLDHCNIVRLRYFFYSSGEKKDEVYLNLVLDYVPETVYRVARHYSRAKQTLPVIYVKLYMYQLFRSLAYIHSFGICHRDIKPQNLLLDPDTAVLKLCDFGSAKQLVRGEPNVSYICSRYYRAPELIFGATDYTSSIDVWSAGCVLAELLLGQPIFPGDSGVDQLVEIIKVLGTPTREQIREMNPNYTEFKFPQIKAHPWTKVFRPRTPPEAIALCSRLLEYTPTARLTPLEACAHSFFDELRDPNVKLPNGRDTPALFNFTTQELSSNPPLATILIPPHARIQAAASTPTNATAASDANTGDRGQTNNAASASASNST
Sequence of GSK3α (GST-full length GSK3α) (P49840 whole entry): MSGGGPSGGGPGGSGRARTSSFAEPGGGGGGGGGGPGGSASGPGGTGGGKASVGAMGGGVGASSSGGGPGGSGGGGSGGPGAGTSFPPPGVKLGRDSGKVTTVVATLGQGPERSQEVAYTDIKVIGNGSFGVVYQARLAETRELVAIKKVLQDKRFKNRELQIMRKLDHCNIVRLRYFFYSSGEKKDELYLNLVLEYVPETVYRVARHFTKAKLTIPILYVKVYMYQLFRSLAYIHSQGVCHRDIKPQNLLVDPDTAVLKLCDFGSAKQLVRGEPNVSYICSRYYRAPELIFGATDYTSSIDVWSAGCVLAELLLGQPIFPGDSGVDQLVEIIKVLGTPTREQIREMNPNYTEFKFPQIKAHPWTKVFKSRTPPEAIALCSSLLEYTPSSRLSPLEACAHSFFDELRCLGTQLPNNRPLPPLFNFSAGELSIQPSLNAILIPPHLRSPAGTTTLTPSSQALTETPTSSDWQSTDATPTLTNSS

Row | IC50 [1, 3] [µM] | IC50 [2, 4] [µM] | IC50 [1, 5] [µM] | IC50 [2, 6] [µM] | Compound | other results
1 |  |  | 1 to 5 | 1 to 5 | CC1(C)CC(=O)C2=C(C1)Nc1n[nH]cc1C21CCCN(C(=O)c2ccccc2)CC1 (stereo not drawn) [Compound 889577] | 
2 | ≤ 0.1 | ≤ 0.1 |  |  | CC1(C)CC(=O)C2=C(C1)Nc1n[nH]cc1C21CCCN(S(=O)(=O)c2ccccc2)CC1 (stereo not drawn) [Compound 889578] | 
3 | ≤ 0.1 | 0.1 to 1 |  |  | CC1(C)CC(=O)C2=C(C1)Nc1n[nH]cc1[C@]21C[C@H](c2ccncc2)C1 [Compound 889664] | 
4 | ≤ 0.1 | ≤ 0.1 |  |  | CC1(C)CC(=O)C2=C(C1)Nc1n[nH]cc1[C@]21C[C@@H](c2ccncc2)C1 [Compound 889665] | IC50 [1, 9]: ≤ 0.1 µM; IC50 [2, 10]: 0.1 to 1 µM
5 | ≤ 0.1 | 0.1 to 1 |  |  | O=C1CC2(CCCCC2)CC2=C1C1(CCOCC1)c1c[nH]nc1N2 [Compound 893307] | 
6 | ≤ 0.1 | 0.1 to 1 |  |  | O=C1CC2(CCCC2)CC2=C1C1(CCOCC1)c1c[nH]nc1N2 [Compound 893308] | 
7 |  |  | 0.1 to 1 | 1 to 5 | O=C1CC(c2ccccc2)CC2=C1C1(CCOCC1)c1c[nH]nc1N2 (stereo not drawn) [Compound 893309] | 
8 | ≤ 0.1 | ≤ 0.1 |  |  | COc1ccccc1S(=O)(=O)N1CCC2(CC1)C1=C(CC(C)(C)CC1=O)Nc1n[nH]cc12 [Compound 893310] | IC50 [1, 9]: ≤ 0.1 µM; IC50 [2, 10]: 0.1 to 1 µM
9 | ≤ 0.1 | ≤ 0.1 |  |  | CC1(C)CC(=O)C2=C(C1)Nc1n[nH]cc1C21CCN(S(=O)(=O)c2ccc(F)cc2)CC1 [Compound 893311] | IC50 [1, 9]: 0.1 to 1 µM; IC50 [2, 10]: 1 to 5 µM
10 |  |  | > 5 | > 5 | CC1(C)CC(=O)C2=C(C1)Nc1n[nH]cc1C21CN(C(=O)c2ccccc2)C1 [Compound 893315] | 
11 |  |  | ≤ 0.1 | 0.1 to 1 | C[C@@H]1C[C@H](C)C(=O)C2=C1Nc1n[nH]cc1C21CCOCC1 [Compound 893316] | 
12 | ≤ 0.1 | 0.1 to 1 |  |  | CC1(C)CC(=O)C2=C(C1)Nc1n[nH]cc1C21Cc2ccccc2C1 [Compound 897752] | 
13 |  |  | 0.1 to 1 | 1 to 5 | C[C@@H]1C[C@]2(CCO1)C1=C(CC(C)(C)CC1=O)Nc1n[nH]cc12 [Compound 899559] | 
14 | 0.1 to 1 | 1 to 5 |  |  | C[C@H]1C[C@@]2(CCO1)C1=C(CC(C)(C)CC1=O)Nc1n[nH]cc12 [Compound 899560] | 
15 | 0.1 to 1 | 0.1 to 1 |  |  | CC1(C(F)(F)F)CC(=O)C2=C(C1)Nc1n[nH]cc1C21CCOCC1 (stereo not drawn) [Compound 901458] | 
16 | 0.1 to 1 | 0.1 to 1 |  |  | O=C1C2=C(Nc3n[nH]cc3C23CCOCC3)C2CCC1C2 (stereo not drawn) [Compound 901464] | 
17 | ≤ 0.1 | ≤ 0.1 |  |  | CC1(C)CC(=O)C2=C(C1)Nc1n[nH]cc1C21CCN(S(=O)(=O)c2ccccc2F)CC1 [Compound 901465] | IC50 [1, 9]: ≤ 0.1 µM; IC50 [2, 10]: 0.1 to 1 µM
18 | ≤ 0.1 | ≤ 0.1 |  |  | CC1(C)CC(=O)C2=C(C1)Nc1n[nH]cc1C21CCN(S(=O)(=O)c2cccc(F)c2)CC1 [Compound 901466] | 
19 | ≤ 0.1 | ≤ 0.1 |  |  | COc1cccc(S(=O)(=O)N2CCC3(CC2)C2=C(CC(C)(C)CC2=O)Nc2n[nH]cc23)c1 [Compound 901468] | IC50 [1, 9]: 0.1 to 1 µM; IC50 [2, 10]: 1 to 5 µM
20 | ≤ 0.1 | ≤ 0.1 |  |  | CC1(C)CC(=O)C2=C(C1)Nc1n[nH]cc1C21CN(S(=O)(=O)c2ccccc2)C1 [Compound 901474] | 
21 | 0.1 to 1 | 0.1 to 1 |  |  | O=C1C[C@@]2(CCOC2)CC2=C1C1(CCOCC1)c1c[nH]nc1N2 [Compound 901475] | 

More lines, now with the values behind:

Row | Compound | IC50 [1, 3] [µM] | IC50 [2, 4] [µM] | IC50 [1, 5] [µM] | IC50 [2, 6] [µM] | other results
22 | CC1(C)CC(=O)C2=C(C1)Nc1n[nH]cc1C21CCCN(CC(F)F)CC1 (stereo not drawn) [Compound 889574] | 0.1 to 1 | 0.1 to 1 |  |  | 
23 | CC(=O)N1CCCC2(CC1)C1=C(CC(C)(C)CC1=O)Nc1n[nH]cc12 (stereo not drawn) [Compound 889575] |  |  | 0.1 to 1 | 1 to 5 | 
24 | CC1(C)CC(=O)C2=C(C1)Nc1n[nH]cc1C21CCCN(CC(F)(F)F)CC1 (stereo not drawn) [Compound 889576] | 0.1 to 1 | 0.1 to 1 |  |  | 
25 | CCC1(c2cccc(S(=O)(=O)CC)c2)C2=C(CC(C)(C)CC2=O)Nc2n[nH]cc21 (stereo not drawn) [Compound 889579] |  |  | ≤ 0.1 | ≤ 0.1 | 
26 | CCC1(c2cccc(N3CCOCC3)c2)C2=C(CC(C)(C)CC2=O)Nc2n[nH]c(C)c21 (stereo not drawn) [Compound 889582] |  |  | 0.1 to 1 | 1 to 5 | 
27 | CC(=O)N1CC[C@@]2(C1)C1=C(CC(C)(C)CC1=O)Nc1n[nH]cc12 [Compound 889583] |  |  | 1 to 5 | > 5 | 
28 | CC(=O)N1CC[C@]2(C1)C1=C(CC(C)(C)CC1=O)Nc1n[nH]cc12 [Compound 889584] |  |  | 0.1 to 1 | 1 to 5 | 
29 | CCC1(c2cccc(N3CCC3)c2)C2=C(CC(C)(C)CC2=O)Nc2n[nH]cc21 (stereo not drawn) [Compound 889631] |  |  | 0.1 to 1 | 0.1 to 1 | 
30 | CC[C@]1(c2cccc(N3CCC3)c2)C2=C(CC(C)(C)CC2=O)Nc2n[nH]cc21 [Compound 889632] |  |  | > 5 | > 5 | 
31 | CCC1(c2cccc(N3CCCc4ncccc43)c2)C2=C(CC(C)(C)CC2=O)Nc2n[nH]cc21 (stereo not drawn) [Compound 889639] |  |  | ≤ 0.1 | ≤ 0.1 | IC50 [1, 7]: ≤ 0.1 µM; IC50 [2, 8]: 0.1 to 1 µM
32 | CCC1(c2cccc(N(C(C)=O)C(C)C)c2)C2=C(CC(C)(C)CC2=O)Nc2n[nH]cc21 (stereo not drawn) [Compound 893305] |  |  | ≤ 0.1 | ≤ 0.1 | 
33 | CCC1(c2cccc(N(CCOC)C(C)=O)c2)C2=C(CC(C)(C)CC2=O)Nc2n[nH]cc21 (stereo not drawn) [Compound 893306] |  |  | ≤ 0.1 | ≤ 0.1 | 
34 | CC1(C)CC(=O)C2=C(C1)Nc1n[nH]cc1C21CCC2(CC2)CC1 [Compound 893312] |  |  |  |  | IC50 [1, 11]: ≤ 0.1 µM; IC50 [2, 12]: ≤ 0.1 µM
35 | CN1CCCC2(CC1)C1=C(CC(C)(C)CC1=O)Nc1n[nH]cc12 (stereo not drawn) [Compound 893313] |  |  | > 5 | > 5 | 
36 | CC(=O)N1CC2(C1)C1=C(CC(C)(C)CC1=O)Nc1n[nH]cc12 [Compound 893314] |  |  | 1 to 5 | > 5 | 
37 | C[C@H]1CCC[C@]2(C1)C1=C(CC(C)(C)CC1=O)Nc1n[nH]cc12 [Compound 893318] | 0.1 to 1 | 0.1 to 1 |  |  | 

Row | Compound | IC50 [1, 3] [µM] | IC50 [2, 4] [µM] | IC50 [1, 5] [µM] | IC50 [2, 6] [µM] | other results
38 | C[C@H]1CCC[C@@]2(C1)C1=C(CC(C)(C)CC1=O)Nc1n[nH]cc12 [Compound 893319] | 0.1 to 1 | 0.1 to 1 |  |  | 
39 | C[C@@H]1CCC[C@@]2(C1)C1=C(CC(C)(C)CC1=O)Nc1n[nH]cc12 [Compound 893320] | ≤ 0.1 | ≤ 0.1 |  |  | 
40 | CCC1(c2cc(-c3ccncc3)ccc2C)C2=C(CC(C)(C)CC2=O)Nc2n[nH]cc21 (stereo not drawn) [Compound 893323] |  |  | ≤ 0.1 | 0.1 to 1 | IC50 [1, 7]: 0.1 to 1 µM; IC50 [2, 8]: > 5 µM
41 | CC[C@]1(c2cc(-c3ccncc3)ccc2F)C2=C(CC(C)(C)CC2=O)Nc2n[nH]cc21 [Compound 893324] |  |  | 1 to 5 | > 5 | 
42 | CC1(C)CC(=O)C2=C(C1)Nc1n[nH]cc1C21CCS(=O)(=O)CC1 [Compound 896013] | 0.1 to 1 | 0.1 to 1 |  |  | 
43 | CCC1(c2cccc(C(F)(F)F)c2)C2=C(CCN(Cc3ccccc3)C2=O)Nc2n[nH]cc21 (stereo not drawn) [Compound 897749] |  |  |  |  | IC50 [1, 11]: 0.1 to 1 µM; IC50 [2, 12]: > 5 µM
44 | C[C@@H]1CC[C@]2(C1)C1=C(CC(C)(C)CC1=O)Nc1n[nH]cc12 [Compound 897750] | ≤ 0.1 | ≤ 0.1 |  |  | 
45 | C[C@H]1CC[C@@]2(C1)C1=C(CC(C)(C)CC1=O)Nc1n[nH]cc12 [Compound 897751] | ≤ 0.1 | 0.1 to 1 |  |  | 
46 | CC1(C)CC(=O)C2=C(C1)Nc1n[nH]cc1[C@@]21CCOC2(CCC2)C1 [Compound 897755] |  |  |  |  | IC50 [1, 11]: 1 to 5 µM; IC50 [2, 12]: 1 to 5 µM
47 | CC1(C)CC(=O)C2=C(C1)Nc1n[nH]cc1[C@]21CCOC2(CCC2)C1 [Compound 897756] |  |  |  |  | IC50 [1, 11]: 0.1 to 1 µM; IC50 [2, 12]: 0.1 to 1 µM
48 | Cn1cc(S(=O)(=O)N2CCC3(CC2)C2=C(CC(C)(C)CC2=O)Nc2n[nH]cc23)cn1 [Compound 901467] | ≤ 0.1 | ≤ 0.1 |  |  | IC50 [1, 9]: 0.1 to 1 µM; IC50 [2, 10]: 1 to 5 µM
49 | COc1ccc(S(=O)(=O)N2CCC3(CC2)C2=C(CC(C)(C)CC2=O)Nc2n[nH]cc23)cc1 [Compound 901469] |  |  |  |  | IC50 [1, 9]: 0.1 to 1 µM; IC50 [2, 10]: 0.1 to 1 µM
50 | CC1(C)CC(=O)C2=C(C1)Nc1n[nH]cc1C21CCN(S(=O)(=O)C2CC2)CC1 [Compound 901470] | ≤ 0.1 | ≤ 0.1 |  |  | IC50 [1, 9]: 0.1 to 1 µM; IC50 [2, 10]: 0.1 to 1 µM
51 | Cn1ccc(S(=O)(=O)N2CCC3(CC2)C2=C(CC(C)(C)CC2=O)Nc2n[nH]cc23)n1 [Compound 901471] | ≤ 0.1 | ≤ 0.1 |  |  | IC50 [1, 9]: 0.1 to 1 µM; IC50 [2, 10]: 1 to 5 µM
52 | CO[C@H]1C[C@@]2(C1)C1=C(CC(C)(C)CC1=O)Nc1n[nH]cc12 [Compound 901472] |  |  | > 5 | > 5 | 
53 | CO[C@H]1C[C@]2(C1)C1=C(CC(C)(C)CC1=O)Nc1n[nH]cc12 [Compound 901473] |  |  | > 5 | > 5 | 
